Test results reported in patent US12077503B2, “Substituted cyclic amides and their use as herbicides” (FMC CORPORATION, priority 2015, dated 2024).

How the values were obtained:
Format in all cases: in vivo
corn (Zea mays) [1] = assay: Test G Post-Emergence Protocol; conditions: Zea mays, post-emergence, 312 h; for plant injury at 15.625 g/ha: 15.625 g ai/ha, evaluated after 13 days (100=total damage to plant; 0=no damage to plant), read-out: Corn damage rating; for plant injury at 62.5 g/ha: 62.5 g ai/ha, read-out: Corn damage rating (100=total damage to plant; 0=no damage to plant); for plant injury at 62.5 g/ha / plant injury at 250 g/ha: evaluated after 13 days; for plant injury at 250 g/ha: 250 g ai/ha, read-out: damage to plant, Corn (100=total damage to plant; 0=no damage to plant)
How it was run: (§1)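 Damage was rated 13 days after treatment from 0 (none) to 100 (plant killed). Compound was applied as a spray at 15.625, 62.5 or 250 g/ha in 50:50 acetone/water containing 0.5% Tween 20, onto 8-day-old potted plants kept in a glasshouse (24/16 °C, 14 h light, 65% humidity).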

[2] = tested on: redroot pigweed (Amaranthus retroflexus); assay: Test G Post-Emergence Protocol; conditions: Amaranthus retroflexus, post-emergence, 312 h; for pest or weed control at 15.625 g/ha: 15.625 g ai/ha, evaluated after 13 days (100=total damage to plant; 0=no damage to plant), read-out: Pigweed, Redroot damage rating; for pest or weed control at 62.5 g/ha: 62.5 g ai/ha, read-out: Pigweed, Redroot damage rating (100=total damage to plant; 0=no damage to plant); for pest or weed control at 62.5 g/ha / pest or weed control at 250 g/ha: evaluated after 13 days; for pest or weed control at 250 g/ha: 250 g ai/ha, read-out: damage to plant, Pigweed, Redroot (100=total damage to plant; 0=no damage to plant)
How it was run: as §1

[3] = tested on: giant foxtail (Setaria faberi); assay: Test G Post-Emergence Protocol; conditions: Setaria faberi, post-emergence, 312 h; for pest or weed control at 15.625 g/ha: 15.625 g ai/ha, evaluated after 13 days (100=total damage to plant; 0=no damage to plant), read-out: Foxtail, Giant damage rating; for pest or weed control at 62.5 g/ha: 62.5 g ai/ha, read-out: Foxtail, Giant damage rating (100=total damage to plant; 0=no damage to plant); for pest or weed control at 62.5 g/ha / pest or weed control at 250 g/ha: evaluated after 13 days; for pest or weed control at 250 g/ha: 250 g ai/ha, read-out: damage to plant, Foxtail, Giant (100=total damage to plant; 0=no damage to plant)
How it was run: as §1

[4] = tested on: velvetleaf (Abutilon theophrasti); assay: Test G Post-Emergence Protocol; conditions: Abutilon theophrasti, post-emergence, 312 h; for pest or weed control at 15.625 g/ha: 15.625 g ai/ha, evaluated after 13 days (100=total damage to plant; 0=no damage to plant), read-out: Velvetleaf damage rating; for pest or weed control at 62.5 g/ha: 62.5 g ai/ha, read-out: Velvetleaf damage rating (100=total damage to plant; 0=no damage to plant); for pest or weed control at 62.5 g/ha / pest or weed control at 250 g/ha: evaluated after 13 days; for pest or weed control at 250 g/ha: 250 g ai/ha, read-out: damage to plant, Velvetleaf (100=total damage to plant; 0=no damage to plant)
How it was run: as §1

[5] = tested on: ivy-leaved morning glory (Ipomoea hederacea); assay: Test G Post-Emergence Protocol; conditions: Ipomoea, post-emergence, 312 h; for pest or weed control at 15.625 g/ha: 15.625 g ai/ha, evaluated after 13 days (100=total damage to plant; 0=no damage to plant), read-out: Morningglory, Ivy-leaved damage rating; for pest or weed control at 62.5 g/ha: 62.5 g ai/ha, read-out: Morningglory, Ivy-leaved damage rating (100=total damage to plant; 0=no damage to plant); for pest or weed control at 62.5 g/ha / pest or weed control at 250 g/ha: evaluated after 13 days; for pest or weed control at 250 g/ha: 250 g ai/ha, read-out: damage to plant, Morningglory, Ivy-leaved (100=total damage to plant; 0=no damage to plant)
How it was run: as §1

[6] = tested on: barnyardgrass (Echinochloa crus-galli); assay: Test G Post-Emergence Protocol; conditions: Echinochloa crus-galli, post-emergence, 312 h; for pest or weed control at 15.625 g/ha: 15.625 g ai/ha, evaluated after 13 days (100=total damage to plant; 0=no damage to plant), read-out: Barnyardgrass damage rating; for pest or weed control at 62.5 g/ha: 62.5 g ai/ha, read-out: Barnyardgrass damage rating (100=total damage to plant; 0=no damage to plant); for pest or weed control at 62.5 g/ha / pest or weed control at 250 g/ha: evaluated after 13 days; for pest or weed control at 250 g/ha: 250 g ai/ha, read-out: damage to plant, Barnyardgrass (100=total damage to plant; 0=no damage to plant)
How it was run: as §1

corn (Zea mays) [7] = assay: Test G Pre-Emergence Protocol; conditions: Zea mays, pre-emergence, 312 h, evaluated after 13 days; for plant injury at 15.625 g/ha: 15.625 g ai/ha; for plant injury at 15.625 g/ha / plant injury at 250 g/ha: read-out: Corn damage rating (100=total damage to plant; 0=no damage to plant); for plant injury at 62.5 g/ha: 62.5 g ai/ha, 100=total damage to plant, 0=no damage to plant, read-out: plant damage rating, Corn; for plant injury at 250 g/ha: 250 g ai/ha
How it was run: (§2)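 Pots of seeds in standard soil were grown for one day in a glasshouse (24/16 °C day/night, 14 h light, 65% humidity), then sprayed with compound in acetone/water 50:50 with 0.5% Tween 20 at 15.625, 62.5 or 250 g/ha. Damage was scored after 13 days on a 0 (none) to 100 (total) scale.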

[8] = tested on: redroot pigweed (Amaranthus retroflexus); assay: Test G Pre-Emergence Protocol; conditions: Amaranthus retroflexus, pre-emergence, 312 h, evaluated after 13 days; for pest or weed control at 15.625 g/ha: 15.625 g ai/ha; for pest or weed control at 15.625 g/ha / pest or weed control at 250 g/ha: read-out: Pigweed, Redroot damage rating (100=total damage to plant; 0=no damage to plant); for pest or weed control at 62.5 g/ha: 62.5 g ai/ha, 100=total damage to plant, 0=no damage to plant, read-out: plant damage rating, Pigweed, Redroot; for pest or weed control at 250 g/ha: 250 g ai/ha
How it was run: as §2

[9] = tested on: giant foxtail (Setaria faberi); assay: Test G Pre-Emergence Protocol; conditions: Setaria faberi, pre-emergence, 312 h, evaluated after 13 days; for pest or weed control at 15.625 g/ha: 15.625 g ai/ha; for pest or weed control at 15.625 g/ha / pest or weed control at 250 g/ha: read-out: Foxtail, Giant damage rating (100=total damage to plant; 0=no damage to plant); for pest or weed control at 62.5 g/ha: 62.5 g ai/ha, 100=total damage to plant, 0=no damage to plant, read-out: plant damage rating, Foxtail, Giant; for pest or weed control at 250 g/ha: 250 g ai/ha
How it was run: as §2

[10] = tested on: velvetleaf (Abutilon theophrasti); assay: Test G Pre-Emergence Protocol; conditions: Abutilon theophrasti, pre-emergence, 312 h, evaluated after 13 days; for pest or weed control at 15.625 g/ha: 15.625 g ai/ha; for pest or weed control at 15.625 g/ha / pest or weed control at 250 g/ha: read-out: Velvetleaf damage rating (100=total damage to plant; 0=no damage to plant); for pest or weed control at 62.5 g/ha: 62.5 g ai/ha, 100=total damage to plant, 0=no damage to plant, read-out: plant damage rating, Velvetleaf; for pest or weed control at 250 g/ha: 250 g ai/ha
How it was run: as §2

[11] = tested on: ivy-leaved morning glory (Ipomoea hederacea); assay: Test G Pre-Emergence Protocol; conditions: Ipomoea, pre-emergence, 312 h, evaluated after 13 days; for pest or weed control at 62.5 g/ha: 62.5 g ai/ha, 100=total damage to plant, 0=no damage to plant, read-out: plant damage rating, Morningglory, Ivy-leaved; for pest or weed control at 250 g/ha: 250 g ai/ha, read-out: Morningglory, Ivy-leaved damage rating (100=total damage to plant; 0=no damage to plant)
How it was run: as §2

[12] = tested on: barnyardgrass (Echinochloa crus-galli); assay: Test G Pre-Emergence Protocol; conditions: Echinochloa crus-galli, pre-emergence, 312 h, evaluated after 13 days; for pest or weed control at 15.625 g/ha: 15.625 g ai/ha, read-out: Barnyard grass damage rating (100=total damage to plant; 0=no damage to plant); for pest or weed control at 62.5 g/ha: 62.5 g ai/ha, 100=total damage to plant, 0=no damage to plant, read-out: plant damage rating, Barnyardgrass; for pest or weed control at 250 g/ha: 250 g ai/ha, read-out: Barnyardgrass damage rating (100=total damage to plant; 0=no damage to plant)
How it was run: as §2

| SMILES | plant injury at 15.625 g/ha (corn (Zea mays) [1]) [%] | plant injury at 62.5 g/ha (corn (Zea mays) [1]) [%] | plant injury at 250 g/ha (corn (Zea mays) [1]) [%] | pest or weed control at 15.625 g/ha [2] [%] | pest or weed control at 62.5 g/ha [2] [%] | pest or weed control at 250 g/ha [2] [%] | pest or weed control at 15.625 g/ha [3] [%] | pest or weed control at 62.5 g/ha [3] [%] | pest or weed control at 250 g/ha [3] [%] | pest or weed control at 15.625 g/ha [4] [%] | pest or weed control at 62.5 g/ha [4] [%] | pest or weed control at 250 g/ha [4] [%] | pest or weed control at 15.625 g/ha [5] [%] | pest or weed control at 62.5 g/ha [5] [%] | pest or weed control at 250 g/ha [5] [%] | pest or weed control at 15.625 g/ha [6] [%] | pest or weed control at 62.5 g/ha [6] [%] | pest or weed control at 250 g/ha [6] [%] | plant injury at 15.625 g/ha (corn (Zea mays) [7]) [%] | plant injury at 62.5 g/ha (corn (Zea mays) [7]) [%] | other results |
| --- | --- | --- | --- | --- | --- | --- | --- | --- | --- | --- | --- | --- | --- | --- | --- | --- | --- | --- | --- | --- | --- |
| CN1C[C@@H](c2ccc(C(F)(F)F)cc2)[C@H](C(=O)Nc2n[nH]c(C(F)(F)F)n2)C1=O (racemic) [Compound 1540] | 0 | 10 | 10 | 0 | 0 | 20 | 0 | 0 | 0 | 0 | 0 | 0 | 0 | 10 | 10 | 0 | 0 | 0 | 0 | 0 | plant injury at 250 g/ha (corn (Zea mays) [7]): 0%; pest or weed control at 15.625 g/ha [8]: 0%; pest or weed control at 62.5 g/ha [8]: 0%; pest or weed control at 250 g/ha [8]: 40%; pest or weed control at 15.625 g/ha [9]: 0%; pest or weed control at 62.5 g/ha [9]: 0%; pest or weed control at 250 g/ha [9]: 0%; pest or weed control at 15.625 g/ha [10]: 0%; pest or weed control at 62.5 g/ha [10]: 0%; pest or weed control at 250 g/ha [10]: 0%; pest or weed control at 15.625 g/ha ([11]; 15.625 g ai/ha, read-out: Morning-glory, Ivy-leaved damage rating (100=total damage to plant; 0=no damage to plant)): 0%; pest or weed control at 62.5 g/ha [11]: 0%; pest or weed control at 250 g/ha [11]: 0%; pest or weed control at 15.625 g/ha [12]: 0%; pest or weed control at 62.5 g/ha [12]: 0%; pest or weed control at 250 g/ha [12]: 0% |
| Cc1conc1NC(=O)[C@@H]1C(=O)N(C)C[C@H]1c1ccc(C(F)(F)F)cc1 (racemic) [Compound 1553] | 0 | 0 | 0 | 0 | 0 | 0 | 0 | 0 | 0 | 0 | 0 | 0 | 0 | 0 | 0 | 0 | 0 | 0 | 0 | 0 | plant injury at 250 g/ha (corn (Zea mays) [7]): 0%; pest or weed control at 15.625 g/ha [8]: 0%; pest or weed control at 62.5 g/ha [8]: 0%; pest or weed control at 250 g/ha [8]: 0%; pest or weed control at 15.625 g/ha [9]: 0%; pest or weed control at 62.5 g/ha [9]: 0%; pest or weed control at 250 g/ha [9]: 0%; pest or weed control at 15.625 g/ha [10]: 0%; pest or weed control at 62.5 g/ha [10]: 0%; pest or weed control at 250 g/ha [10]: 0%; pest or weed control at 62.5 g/ha [11]: 0%; pest or weed control at 250 g/ha [11]: 0%; pest or weed control at 15.625 g/ha [12]: 0%; pest or weed control at 62.5 g/ha [12]: 0%; pest or weed control at 250 g/ha [12]: 0% |
